Experimental data: patent US8487095B2, “Acid addition salts, hydrates and polymorphs of 5-(2,4-dihydroxy-5-iso-propyl-phenyl)-4-(4-morpholin-4-ylmethyl-phenyl)-isoxazole-3-carboxylic acid ethylamide and formulations comprising these forms” (priority 2007, dated 2013)
Counter-ions that a name gives are not always drawn. Like-named read-outs stand apart in the source and are kept apart here.

Legend:
[1] = Solubility of the free base and its salts (description); assay type: physicochemical
[2] = Hygroscopicity by Dynamic Water Sorption (DVS); assay type: physicochemical; details: 25° C.; for found to be hygroscopic: DVS, 'Neither' = not hygroscopic
Experimental: Hygroscopicity is measured using a Dynamic Water Sorption (DVS) apparatus. Measurements are performed at 25° C. using about 8-10 mg of substance. The r.h. is changed in steps of 10% r.h. as follows: 40-0-95-0-40% r.h. The minimum stage time is 60 min, the maximum 180 min, if the change in mass of 10 min is less than 0.002%/min, the r.h. is changed to the next step.

[3] = Solubility of the mesylate salt in different aqueous media (Example 7); assay type: physicochemical
Experimental: The solubility of the 5-(2,4-dihydroxy-5-isopropyl-phenyl)-4-(4-morpholin-4-ylmethyl-phenyl)-isoxazole-3-carboxylic acid ethylamide (AUY922) mesylate salt in different aqueous media were determined and found to be as follows: […]

[4] = Stress tests in solution or suspensions, 4 weeks at 50° C. (Example 8); assay type: physicochemical
Experimental: The stability of the AUY922 mesylate salt in different aqueous media were determined under stress conditions (4 weeks at 50° C.) and the following appearance/content recovery/sum of by- and degradation products were found: […]

[5] = pH and autoclavation of the 4.8-5.2 mg/ml aqueous mesylate solution; assay type: physicochemical
Experimental: Preferably, the formulation comprises between around 4.8 and 5.2 mg/ml solution, more preferably 5.0 mg/ml solution, of 5-(2,4-dihydroxy-5-isopropyl-phenyl)-4-(4-morpholin-4-ylmethyl-phenyl)-isoxazole-3-carboxylic acid ethylamide mesylate. The pH of such a solution is around 4.2 and therefore at the stability maximum of the mesylate salt. This surprising finding renders the solution particularly suitable for pharmaceutical use. In particular, it allows to use the solution without any other excipients, such as buffers, for stabilizing the drug substance.

Light sensitivity = assay type: physicochemical; details: as solid as well as in solution
[6] = Stability and crystal formation of aqueous mesylate solutions on storage; assay type: physicochemical
Excerpt: The expression “free of any other salts” as used herein means that neither any salts derived from inorganic or organic acids, such as sodium chloride, as isotonic agent nor any buffer salts are present.
In one embodiment, the formulation consists of the mesylate salt of an isotonic aqueous solution of 5-(2,4-dihydroxy-5-isopropyl-phenyl)-4-(4-morpholin-4-ylmethyl-phenyl)-isoxazole-3-carboxylic acid ethylamide and 5% w/w of glucose or mannitol. […] Furthermore, the pH of such a solution prevents Maillard reactions during autoclavation of the 5% glucose solution which would lead to discoloration at neutral pH.

[7] = Equilibration in suspension (polymorphism); assay type: physicochemical; details: over a range of applied conditions
Excerpt: Lack of polymorphism is a beneficial property for a solid form designated to be developed as a medicament.

[8] = clinical, humans; cited from earlier work
[9] = cited from earlier work
[10] = water, read-out: solubility in water
[11] = buffer pH 6.0 (phosphate buffer)
[12] = buffer pH 6.8 (phosphate buffer)

Compound: CCNC(=O)c1noc(-c2cc(C(C)C)c(O)cc2O)c1-c1ccc(CN2CCOCC2)cc1.O=C(O)C(O)C(O)C(=O)O [tartrate salt, 5-(2,4-dihydroxy-5-isopropyl-phenyl)-4-(4-morpholin-4-ylmethyl-phenyl)-isoxazole-3-carboxylic acid ethylamide tartrate]
- solubility [1, 10]: > 2000 µg/mL

Compound: CCNC(=O)c1noc(-c2cc(C(C)C)c(O)cc2O)c1-c1ccc(CN2CCOCC2)cc1.O=P(O)(O)O [phosphate salt, 5-(2,4-dihydroxy-5-isopropyl-phenyl)-4-(4-morpholin-4-ylmethyl-phenyl)-isoxazole-3-carboxylic acid ethylamide phosphate]
- solubility [1, 10]: 500 to 1000 µg/mL

Compound: CCNC(=O)c1noc(-c2cc(C(C)C)c(O)cc2O)c1-c1ccc(CN2CCOCC2)cc1 [free base, 5-(2,4-Dihydroxy-5-isopropyl-phenyl)-4-(4-morpholin-4-ylmethyl-phenyl)-isoxazole-3-carboxylic acid ethylamide]
- solubility in 0.1 N HCl [1]: 1000 to 2500 µg/mL
- solubility in water ([1]; water): less than 0.1 mg/ml
- maximum uptake of water ([2]; 80% relative humidity): 1.8%
- found to be hygroscopic [2]: slightly hygroscopic

Compound: CCNC(=O)c1noc(-c2cc(C(C)C)c(O)cc2O)c1-c1ccc(CN2CCOCC2)cc1 [mesylate salt, 5-(2,4-Dihydroxy-5-isopropyl-phenyl)-4-(4-morpholin-4-ylmethyl-phenyl)-isoxazole-3-carboxylic acid ethylamide mesylate]
- solubility compared with the free base (and other salts) [1]: superior
- solubility in 0.1 N HCl ([1]; mesylate): 10000 to 20000 µg/mL
- solubility ([1]; pH 5, aqueous buffer, pH 5, read-out: solubility at pH 5): 1000 to 2500 µg/mL
- solubility ([1]; water, pH 4, water, water at pH 4, read-out: solubility in water at pH 4): 33500 µg/mL
- found to be hygroscopic ([2]; mesylate): Neither
- solubility ([3]; 0.9% NaCl solution, saline or isotonic, thermodynamic from solid): 12800 µg/mL
- solubility ([3]; 5% glucose solution, saline or isotonic, thermodynamic from solid): 39000 µg/mL
- solubility ([3]; 5% mannitol solution, saline or isotonic, thermodynamic from solid): 39000 µg/mL
- solubility ([3]; aqueous buffer, thermodynamic from solid, buffer pH 4.0 (acetate buffer)): 14600 µg/mL
- solubility ([3]; aqueous buffer, thermodynamic from solid, buffer pH 5.0 (acetate buffer)): 3200 µg/mL
- solubility ([3]; aqueous buffer, thermodynamic from solid, buffer pH 6.0 (phosphate buffer)): 600 µg/mL
- solubility ([3]; aqueous buffer, thermodynamic from solid, buffer pH 7.0 (phosphate buffer)): 700 µg/mL
- solubility ([3]; aqueous buffer, thermodynamic from solid, buffer pH 8.0 (borate buffer)): 1800 µg/mL
- solubility ([3]; pH 3.6, thermodynamic from solid, Water (pH of the saturated solution=3.6)): 37500 µg/mL
- solubility ([3]; saline or isotonic, thermodynamic from solid, 5% glucose solution pH 4): 35600 µg/mL
- solubility ([3]; saline or isotonic, thermodynamic from solid, 5% glucose solution pH 7): 37500 µg/mL
- appearance ([4]; 0.9% NaCl): colorless solution
- sum of by- and degradation products ([4]; 0.9% NaCl): 0.34%
- appearance ([4]; 5% glucose solution): colorless solution
- sum of by- and degradation products ([4]; 5% glucose solution): 0.34%
- appearance ([4]; Water): colorless solution
- sum of by- and degradation products ([4]; Water): 0.32%
- appearance ([4]; buffer pH1.0 (HCl)): colorless solution
- sum of by- and degradation products ([4]; buffer pH1.0 (HCl)): 2.83%
- appearance ([4]; buffer pH2.0 (citrate buffer)): colorless solution
- sum of by- and degradation products ([4]; buffer pH2.0 (citrate buffer)): 0.58%
- appearance ([4]; buffer pH3.0 (citrate buffer)): colorless solution
- sum of by- and degradation products ([4]; buffer pH3.0 (citrate buffer)): 0.47%
- appearance ([4]; buffer pH 4.0 (acetate buffer)): colorless solution
- sum of by- and degradation products ([4]; buffer pH 4.0 (acetate buffer)): 0.36%
- appearance ([4]; buffer pH 5.0 (acetate buffer)): colorless solution
- sum of by- and degradation products ([4]; buffer pH 5.0 (acetate buffer)): 0.50%
- appearance [4, 11]: colorless suspension
- sum of by- and degradation products [4, 11]: 0.49%
- appearance [4, 12]: colorless suspension
- sum of by- and degradation products [4, 12]: 0.79%
- appearance ([4]; buffer pH8.0 (borate buffer)): colorless suspension
- sum of by- and degradation products ([4]; buffer pH8.0 (borate buffer)): 0.26%
- pH of stability maximum ([4]; stress conditions): 4
- pH of the solution ([5]; aqueous solution, around 4.8 to 5.2 mg/ml mesylate): around 4.2
- stability to autoclavation ([5]; solution of around 4.8 to 5.2 mg/ml, about 120° C., 20 to 40 minutes, around 2 bar): without causing any color changes or degradation products
- light sensitivity (Light sensitivity): light sensitive
- crystal formation in solution ([6]; in the presence of other salts (e.g. sodium chloride, buffer salts)): crystals are formed sooner or later
- chemical stability in formulation ([6]; isotonic aqueous solution with 5% w/w of glucose or mannitol): chemically stable
- crystal formation on storage ([6]; isotonic aqueous solution with 5% w/w of glucose or mannitol, longer storage time, e.g. several months): crystal formation can be avoided

Compound: CCNC(=O)c1noc(-c2cc(C(C)C)c(O)cc2O)c1-c1ccc(CN2CCOCC2)cc1 [hydrochloride salt, 5-(2,4-Dihydroxy-5-isopropyl-phenyl)-4-(4-morpholin-4-ylmethyl-phenyl)-isoxazole-3-carboxylic acid ethylamide hydrochloric acid salt]
- solubility in 0.1 N HCl [1]: less than 1 mg/ml
- solubility at pH 5 ([1]; pH 5): 1-2.5 mg/ml
- solubility in water ([1]; water): 2500 to 5000 µg/mL
- found to be hygroscopic [2]: Neither
- change of crystalline form by equilibration in suspension [7]: did not change

Compound: C=CCNC1=C2C[C@@H](C)C[C@H](OC)[C@H](O)[C@@H](C)/C=C(\C)[C@H](OC(N)=O)[C@@H](OC)/C=C\C=C(/C)C(=O)NC(=CC1=O)C2=O [Example 17-AAG, 17-allylamino-17-demethoxy-geldanamycin]
- dose limiting toxicity [8]: hepatic toxicity
- solubility [9]: poor solubility

Compound: 5-(2,4-dihydroxy-5-isopropyl-phenyl)-4-(4-morpholin-4-ylmethyl-phenyl)-isoxazole-3-carboxylic acid ethylamide hemi fumarate [hemi fumarate salt]
- solubility in water ([1]; water): 100 to 250 µg/mL
